Test results reported in the NIST ThermoML archive (doi:10.1021/je060271a).

Settings: 283.14 K, Liquid, Vibrating tube method

CCCCCCC(=O)OCC(COC(=O)CCCCCC)(COC(=O)CCCCCC)COC(=O)CCCCCC [pentaerythritol tetraheptanoate]
Settings	mass density [kg/m3]
19935 kPa	997
19962 kPa	996.9
19984 kPa	996.9
20007 kPa	996.9
20034 kPa	997
20057 kPa	997
20081 kPa	997
20105 kPa	997
20133 kPa	997
20156 kPa	997
20179 kPa	997.1
20202 kPa	997
20230 kPa	997
20253 kPa	997.1
20282 kPa	997.1
20305 kPa	997
20328 kPa	997.1
20356 kPa	997.1
20380 kPa	997.1
20404 kPa	997.2
20428 kPa	997.2
20456 kPa	997.2
20480 kPa	997.2
20504 kPa	997.2
20533 kPa	997.2
20557 kPa	997.2
20586 kPa	997.3
20610 kPa	997.3
20634 kPa	997.3
20663 kPa	997.3
20688 kPa	997.3
20713 kPa	997.3
20742 kPa	997.2
20768 kPa	997.5
20792 kPa	997.5
20822 kPa	997.5
20846 kPa	997.4
20871 kPa	997.4
20896 kPa	997.4
20926 kPa	997.4
20951 kPa	997.4
20976 kPa	997.4
21007 kPa	997.6
21032 kPa	997.5
21062 kPa	997.5
21088 kPa	997.5
21114 kPa	997.6
21140 kPa	997.6
21171 kPa	997.6
21196 kPa	997.4
21222 kPa	997.6
21254 kPa	997.6
21279 kPa	997.6
21310 kPa	997.7
21336 kPa	997.5
21362 kPa	997.7
21393 kPa	997.6
21419 kPa	997.7
21446 kPa	997.7
21473 kPa	997.7
21505 kPa	997.7
21531 kPa	997.7
21558 kPa	997.6
21585 kPa	997.8
21617 kPa	997.6
21644 kPa	997.8
21671 kPa	997.9
21703 kPa	997.8
21730 kPa	997.9
21758 kPa	997.8
21790 kPa	997.9
21818 kPa	997.9
21846 kPa	997.9
21873 kPa	997.7
21906 kPa	998
21933 kPa	997.9
21961 kPa	998
21994 kPa	997.9
22022 kPa	997.9
22055 kPa	998
22083 kPa	998
22111 kPa	997.9
22139 kPa	998.1
22174 kPa	998.1
22199 kPa	998
22233 kPa	998.1
22261 kPa	998.2
22294 kPa	998.1
22323 kPa	998.1
22352 kPa	998.2
22381 kPa	998.2
22416 kPa	998.2
22444 kPa	998.2
22474 kPa	998.1
22509 kPa	998.2
22538 kPa	998.2
22569 kPa	998.2
22599 kPa	998.2
22628 kPa	998.3
22664 kPa	998.4
22694 kPa	998.3
22724 kPa	998.3
22760 kPa	998.4
22789 kPa	998.4
22819 kPa	998.3
22855 kPa	998.4
22886 kPa	998.5
22915 kPa	998.4
22952 kPa	998.5
22982 kPa	998.4
23012 kPa	998.5
23049 kPa	998.6
